# Data from patent US20210038607A1, “OXADIAZOLYLTHIOPHENE DERIVATIVES USEFUL AS HISTONE DEACETYLASE INHIBITORS” (Karus Therapeutics Limited, priority 2018, published 2021).
# How the values were obtained:
# Recombinant human HDAC6 = target: T1, Recombinant human HDAC6 (Homo sapiens, UniProt Q9UBN7); assay: HDAC6 biochemical assay, AMC-labeled peptide substrate; conditions: HDAC6; read-out: HDAC Isoform IC50 (nM) 6
# T1 construct: full length, MW=159 kDa; GST (N); host or cells: Sf9 insect cells (baculovirus)
# T1 sequence (Q9UBN7 1-1215): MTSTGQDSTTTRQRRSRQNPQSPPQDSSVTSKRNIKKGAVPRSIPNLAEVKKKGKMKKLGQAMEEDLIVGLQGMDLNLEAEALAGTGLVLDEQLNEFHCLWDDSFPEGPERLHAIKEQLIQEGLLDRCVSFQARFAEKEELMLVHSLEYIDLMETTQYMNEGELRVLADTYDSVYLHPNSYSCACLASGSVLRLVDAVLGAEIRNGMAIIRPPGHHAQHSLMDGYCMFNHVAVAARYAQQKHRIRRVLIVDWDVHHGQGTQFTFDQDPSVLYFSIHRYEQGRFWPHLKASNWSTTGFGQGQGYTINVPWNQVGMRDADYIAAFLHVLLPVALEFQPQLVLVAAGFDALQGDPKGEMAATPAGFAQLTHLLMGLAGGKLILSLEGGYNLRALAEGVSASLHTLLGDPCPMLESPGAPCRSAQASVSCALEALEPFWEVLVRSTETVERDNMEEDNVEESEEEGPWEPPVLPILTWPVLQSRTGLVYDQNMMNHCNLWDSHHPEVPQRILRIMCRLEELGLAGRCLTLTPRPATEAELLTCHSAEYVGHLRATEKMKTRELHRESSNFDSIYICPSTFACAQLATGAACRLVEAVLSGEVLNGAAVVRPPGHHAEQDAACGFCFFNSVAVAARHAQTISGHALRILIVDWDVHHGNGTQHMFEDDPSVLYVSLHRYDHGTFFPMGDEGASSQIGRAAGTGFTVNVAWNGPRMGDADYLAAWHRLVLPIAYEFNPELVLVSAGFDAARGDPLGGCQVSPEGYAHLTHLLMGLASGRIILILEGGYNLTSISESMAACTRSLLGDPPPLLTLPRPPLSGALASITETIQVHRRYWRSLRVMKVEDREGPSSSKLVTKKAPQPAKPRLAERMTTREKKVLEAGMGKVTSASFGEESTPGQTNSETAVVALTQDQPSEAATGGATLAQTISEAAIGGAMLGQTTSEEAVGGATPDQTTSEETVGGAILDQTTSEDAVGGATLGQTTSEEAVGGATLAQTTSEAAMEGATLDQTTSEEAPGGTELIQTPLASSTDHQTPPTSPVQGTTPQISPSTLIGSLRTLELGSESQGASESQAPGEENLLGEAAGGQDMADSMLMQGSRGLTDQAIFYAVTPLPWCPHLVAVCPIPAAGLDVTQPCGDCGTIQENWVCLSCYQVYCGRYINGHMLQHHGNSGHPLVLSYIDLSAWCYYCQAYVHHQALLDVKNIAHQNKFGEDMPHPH
# Summary of the method: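 Two-step fluorogenic read-out: enzyme deacetylates 50 μM RHKK(Ac)AMC for 1 h at 30° C in pH 8.0 Tris buffer with BSA and 1% DMSO, then developer cleavage gives signal at Ex 360/Em 460. Enzyme: 0.3 ng/ul recombinant full-length human HDAC6, GST-tagged, Sf9-expressed.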
# Human HDAC1 = target: T2, Human HDAC1 (Homo sapiens, UniProt Q13547); assay: HDAC1 biochemical assay, AMC-labeled peptide substrate; conditions: read-out: HDAC Isoform IC50 (nM) 1
# T2 construct: full length with C-terminal His-tag and C-terminal FLAG-tag; His (C); FLAG (C); host or cells: baculovirus expression system
# Summary of the method: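 Baculovirus-expressed full-length human HDAC1 with His and FLAG tags, 0.3 ng/ul, incubated 1 h at 30° C with compound and 50 μM RHKK(Ac)AMC in Tris pH 8.0 buffer with BSA and 1% DMSO. Developer then releases AMC from deacetylated substrate; fluorescence read at 360/460 nm.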
# Human HDAC4 = target: T3, Human HDAC4 (Homo sapiens, UniProt P56524); assay: HDAC4 biochemical assay, class IIa-specific substrate; conditions: read-out: HDAC Isoform IC50 (nM) 4
# T3 construct: amino acids 627-1085 with N-terminal GST tag; GST (N); host or cells: baculovirus expression system
# Summary of the method: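 GST-tagged human HDAC4 (aa 627-1085, baculovirus) at 0.004 ng/ul was incubated 30 min at room temperature with 50 μM class IIa-specific substrate BOC-Lys(trifluoroacetyl)-AMC in Tris-HCl pH 8.0 buffer with BSA, 1% DMSO. Developer then released AMC, read at 360/460 nm.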
# Human HDAC7 = target: T4, Human HDAC7 (Homo sapiens, UniProt Q8WUI4); assay: HDAC7 biochemical assay, class IIa-specific substrate; conditions: read-out: HDAC Isoform IC50 (nM) 7
# T4 construct: (a.a. 518-end) with N-terminal GST tag; GST (N); host or cells: baculovirus expression system
# T4 sequence (Q8WUI4 518-952 limits assumed): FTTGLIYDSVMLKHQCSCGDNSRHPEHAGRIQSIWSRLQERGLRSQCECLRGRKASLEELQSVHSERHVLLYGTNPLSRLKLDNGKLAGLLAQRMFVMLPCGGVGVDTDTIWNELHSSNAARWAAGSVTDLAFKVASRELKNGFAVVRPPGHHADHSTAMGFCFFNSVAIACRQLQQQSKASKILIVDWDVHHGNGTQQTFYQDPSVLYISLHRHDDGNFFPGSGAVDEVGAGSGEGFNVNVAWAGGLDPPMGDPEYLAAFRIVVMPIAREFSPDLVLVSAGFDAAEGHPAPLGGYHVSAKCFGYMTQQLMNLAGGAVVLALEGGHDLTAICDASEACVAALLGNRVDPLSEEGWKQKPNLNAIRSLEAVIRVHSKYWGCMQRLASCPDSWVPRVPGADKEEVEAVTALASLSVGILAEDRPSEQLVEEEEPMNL
# Summary of the method: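 GST-tagged HDAC7 (a.a. 518-end, baculovirus-expressed) at 0.001 ng/ul with 50 μM Boc-Lys(trifluoroacetyl)-AMC substrate, 30 min at room temperature in pH 8.0 Tris buffer with BSA, 1% DMSO final. Developer then releases AMC; fluorescence read at 360/460 nm.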
# Human HDAC5 = target: T5, Human HDAC5 (Homo sapiens, UniProt Q9UQL6); assay: HDAC5 biochemical assay, class IIa-specific substrate; conditions: read-out: HDAC Isoform IC50 (nM) 5
# T5 construct: full length with C-terminal His tag, MW=51.1 kDa; His (C); host or cells: baculovirus expression system
# Summary of the method: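 Full-length C-terminal His-tagged HDAC5 from baculovirus (0.05 ng/ul) incubated 30 min at room temperature with 50 μM Boc-Lys(trifluoroacetyl)-AMC and compound, Tris pH 8.0 buffer with BSA, 1% DMSO. Developer then releases AMC; fluorescence 360/460 nm.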
# Human HDAC9 = target: T6, Human HDAC9 (Homo sapiens, UniProt Q9UKV0); assay: HDAC9 biochemical assay, class IIa-specific substrate; conditions: read-out: HDAC Isoform IC50 (nM) 9
# T6 construct: amino acids 604-1066 with C-terminal His tag; His (C); host or cells: baculovirus expression system
# Summary of the method: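 HDAC9 residues 604-1066 (C-terminal His tag, baculovirus-expressed) at 0.06 ng/ul with 50 μM class IIa substrate Boc-Lys(trifluoroacetyl)-AMC in Tris-HCl pH 8.0 buffer with BSA and 1% DMSO. 30 min at room temperature, then developer added; fluorescence read at 360/460 nm Ex/Em.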
# T3 sequence (P56524 627-1084 limits assumed): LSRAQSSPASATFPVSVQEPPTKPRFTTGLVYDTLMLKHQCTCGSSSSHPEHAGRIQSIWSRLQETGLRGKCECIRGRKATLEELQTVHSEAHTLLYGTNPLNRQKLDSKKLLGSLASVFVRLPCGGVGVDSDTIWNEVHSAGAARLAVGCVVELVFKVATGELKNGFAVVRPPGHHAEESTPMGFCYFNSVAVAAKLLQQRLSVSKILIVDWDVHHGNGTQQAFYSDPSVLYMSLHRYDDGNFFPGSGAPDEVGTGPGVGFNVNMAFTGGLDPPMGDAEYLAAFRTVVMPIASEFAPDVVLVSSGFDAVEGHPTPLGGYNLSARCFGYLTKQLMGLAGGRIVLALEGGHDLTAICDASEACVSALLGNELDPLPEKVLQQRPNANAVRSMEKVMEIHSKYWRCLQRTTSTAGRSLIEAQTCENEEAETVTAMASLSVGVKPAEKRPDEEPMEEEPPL
# T6 sequence (Q9UKV0 604-1066 isoform Q9UKV0-5): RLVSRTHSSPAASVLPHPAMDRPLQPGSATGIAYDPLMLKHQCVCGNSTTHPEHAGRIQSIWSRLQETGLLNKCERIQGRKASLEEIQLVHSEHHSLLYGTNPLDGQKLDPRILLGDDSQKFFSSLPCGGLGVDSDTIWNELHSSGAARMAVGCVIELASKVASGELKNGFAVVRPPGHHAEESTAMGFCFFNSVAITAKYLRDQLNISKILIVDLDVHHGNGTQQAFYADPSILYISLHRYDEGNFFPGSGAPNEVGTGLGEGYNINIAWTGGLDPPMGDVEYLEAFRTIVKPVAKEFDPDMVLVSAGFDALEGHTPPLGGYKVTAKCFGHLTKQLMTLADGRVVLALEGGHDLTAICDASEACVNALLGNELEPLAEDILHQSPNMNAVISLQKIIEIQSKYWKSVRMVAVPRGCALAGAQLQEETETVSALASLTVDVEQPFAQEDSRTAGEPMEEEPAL
# T2 sequence (Q13547 whole entry, canonical isoform): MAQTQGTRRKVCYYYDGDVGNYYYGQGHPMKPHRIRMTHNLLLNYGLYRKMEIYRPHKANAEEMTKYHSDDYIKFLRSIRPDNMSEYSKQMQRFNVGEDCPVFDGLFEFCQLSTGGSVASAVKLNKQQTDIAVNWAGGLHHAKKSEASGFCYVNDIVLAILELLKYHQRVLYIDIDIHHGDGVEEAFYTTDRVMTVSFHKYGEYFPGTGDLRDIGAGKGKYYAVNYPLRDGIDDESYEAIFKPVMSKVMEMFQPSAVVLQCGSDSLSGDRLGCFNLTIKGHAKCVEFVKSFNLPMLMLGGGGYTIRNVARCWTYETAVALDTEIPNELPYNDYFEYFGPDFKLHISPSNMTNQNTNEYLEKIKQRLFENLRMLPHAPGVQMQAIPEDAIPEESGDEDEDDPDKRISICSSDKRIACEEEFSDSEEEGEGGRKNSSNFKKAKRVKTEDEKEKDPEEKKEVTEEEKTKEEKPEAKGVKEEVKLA
# T5 sequence (Q9UQL6 656-1122 limits assumed): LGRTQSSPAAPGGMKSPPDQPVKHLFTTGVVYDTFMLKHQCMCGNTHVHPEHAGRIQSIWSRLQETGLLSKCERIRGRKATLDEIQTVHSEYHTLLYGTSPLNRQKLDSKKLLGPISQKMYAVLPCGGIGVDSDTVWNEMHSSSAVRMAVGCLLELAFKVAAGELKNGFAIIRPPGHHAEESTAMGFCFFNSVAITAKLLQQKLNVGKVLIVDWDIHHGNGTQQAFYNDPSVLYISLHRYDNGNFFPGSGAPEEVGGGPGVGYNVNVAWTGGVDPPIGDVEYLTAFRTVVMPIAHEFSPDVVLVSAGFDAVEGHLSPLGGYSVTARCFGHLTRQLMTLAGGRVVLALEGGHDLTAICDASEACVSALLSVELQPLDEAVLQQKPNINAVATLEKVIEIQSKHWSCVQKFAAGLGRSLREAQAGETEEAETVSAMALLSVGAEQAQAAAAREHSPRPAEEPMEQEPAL
SMILES,IC50 (Recombinant human HDAC6) [nM],IC50 (Human HDAC1) [nM],IC50 (Human HDAC4) [nM],IC50 (Human HDAC7) [nM],IC50 (Human HDAC5) [nM],IC50 (Human HDAC9) [nM]
"COc1ccc2ncnc(N(Cc3ccc(-c4noc(C(F)(F)F)n4)s3)c3cnccn3)c2c1 [Example CN, 6-Methoxy-N-(pyrazin-2-yl)-N-({5-[5-(trifluoromethyl)-1,2,4-oxadiazol-3-yl]thiophen-2-yl}methyl)quinazolin-4-amine]",≤ 1000,> 10000,≤ 10000,≤ 10000,≤ 1000,≤ 10000
"CS(=O)(=O)c1cc(N(Cc2ccc(-c3noc(C(F)(F)F)n3)s2)c2cnccn2)ncn1 [Example CK, 6-Methanesulfonyl-N-(pyrazin-2-yl)-N-({5-[5-(trifluoromethyl)-1,2,4-oxadiazol-3-yl]thiophen-2-yl}methyl)pyrimidin-4-amine]",≤ 10000,> 10000,≤ 1000,≤ 10000,≤ 10000,≤ 10000
"CN(C)C(=O)c1ccc(N(Cc2ccc(-c3noc(C(F)(F)F)n3)s2)c2cnccn2)nc1 [Example AC, N,N-Dimethyl-6-[pyrazin-2-yl({5-[5-(trifluoromethyl)-1,2,4-oxadiazol-3-yl]thiophen-2-yl}methyl)amino]pyridine-3-carboxamide]",≤ 1000,> 10000,≤ 1000,≤ 10000,≤ 1000,≤ 10000
"CN(C)c1nccc(N(Cc2ccc(-c3noc(C(F)(F)F)n3)s2)c2cnccn2)n1 [Example CC, N2,N2-Dimethyl-N4-(pyrazin-2-yl)-N4-({5-[5-(trifluoromethyl)-1,2,4-oxadiazol-3-yl]thiophen-2-yl}methyl)pyrimidine-2,4-diamine]",≤ 10000,> 10000,≤ 10000,≤ 10000,≤ 10000,≤ 10000
"FC(F)(F)c1nc(-c2ccc(CN(c3cnccn3)c3ncccc3C3CC3)s2)no1 [Example AM, N-(3-Cyclopropylpyridin-2-yl)-N-({5-[5-(trifluoromethyl)-1,2,4-oxadiazol-3-yl]thiophen-2-yl}methyl)pyrazin-2-amine]",≤ 10000,> 10000,≤ 500,≤ 1000,≤ 500,≤ 10000

# The remaining lines, values ahead:
IC50 (Recombinant human HDAC6) [nM],IC50 (Human HDAC1) [nM],IC50 (Human HDAC4) [nM],IC50 (Human HDAC7) [nM],IC50 (Human HDAC5) [nM],IC50 (Human HDAC9) [nM],SMILES
≤ 500,≤ 10000,≤ 500,≤ 500,≤ 500,≤ 10000,"CN1CCN(c2ccc(N(Cc3ccc(-c4noc(C(F)(F)F)n4)s3)c3cnccn3)nn2)CC1 [Example DK, 6-(4-Methylpiperazin-1-yl)-N-(pyrazin-2-yl)-N-({5-[5-(trifluoromethyl)-1,2,4-oxadiazol-3-yl]thiophen-2-yl}methyl)pyridazin-3-amine]"
≤ 500,> 10000,≤ 10000,≤ 1000,≤ 500,≤ 10000,"Fc1cc(-c2noc(C(F)(F)F)n2)sc1CN(c1cnccn1)c1cnccn1 [Example EY, N-({3-Fluoro-5-[5-(trifluoromethyl)-1,2,4-oxadiazol-3-yl]thiophen-2-yl}methyl)-N-(pyrazin-2-yl)pyrazin-2-amine]"
≤ 500,≤ 10000,≤ 1000,≤ 1000,≤ 1000,≤ 10000,"Cn1cc(-c2ccc(N(Cc3ccc(-c4noc(C(F)(F)F)n4)s3)c3cnccn3)nn2)cn1 [Example DO, 6-(1-Methyl-1H-pyrazol-4-yl)-N-(pyrazin-2-yl)-N-({5-[5-(trifluoromethyl)-1,2,4-oxadiazol-3-yl]thiophen-2-yl}methyl)pyridazin-3-amine]"
≤ 10000,> 10000,≤ 1000,≤ 10000,≤ 10000,≤ 10000,"FC(F)(F)c1nc(-c2ccc(CN(c3cnccn3)c3cccnn3)s2)no1 [Example DD, N-(Pyrazin-2-yl)-N-({5-[5-(trifluoromethyl)-1,2,4-oxadiazol-3-yl]thiophen-2-yl}methyl)pyridazin-3-amine]"
≤ 1000,> 10000,≤ 500,≤ 1000,≤ 1000,≤ 1000,"FC(F)(F)c1nc(-c2ccc(CN(c3cnccn3)c3ccc4ncccc4n3)s2)no1 [Example X, N-(Pyrazin-2-yl)-N-({5-[5-(trifluoromethyl)-1,2,4-oxadiazol-3-yl]thiophen-2-yl}methyl)-1,5-naphthyridin-2-amine]"
